Experimental data: patent USRE42274E1, “Cyclic peptide CXCR4 antagonists” (Eli Lilly and Company, priority 2007, dated 2011)
Counter-ions that a name gives are not always drawn. Numbered stars: 1 amine (or outer) side, 2 acyl side, 3 side chain; on linkers, the order of the positions; unused ones are H or OH. Bridge positions count the residues as written; N and C are the ends. Square brackets hold non-standard residues; d marks the D form. Peptide text beside a SMILES is read from it. * marks the point of attachment. Lys(iPr-d6) = deuterated Lys(iPr), [2H]C([2H])([2H])C(NCCCC[C@H](N[*:1])C(=O)[*:2])C([2H])([2H])[2H]; 2Nal = N[C@@H](Cc1ccc2ccccc2c1)C(=O)O; Lys(iPr) = CC(C)NCCCC[C@H](N)C(=O)O; Lys(Me2) = CN(C)CCCC[C@H](N)C(=O)O; Dap = NC[C@H](N)C(=O)O; Bz = O=C(c1ccccc1)*

What was measured:
CXCR4 [1] = molecular target: T1, CXCR4 (Homo sapiens, UniProt P61073); assay: Chemotaxis assay, SDF-1α-induced migration of U937 cells; assay type: cell-based; parameters: endogenous in cells; settings: SDF-1α 10 ng/mL
T1 sequence (P61073 whole entry): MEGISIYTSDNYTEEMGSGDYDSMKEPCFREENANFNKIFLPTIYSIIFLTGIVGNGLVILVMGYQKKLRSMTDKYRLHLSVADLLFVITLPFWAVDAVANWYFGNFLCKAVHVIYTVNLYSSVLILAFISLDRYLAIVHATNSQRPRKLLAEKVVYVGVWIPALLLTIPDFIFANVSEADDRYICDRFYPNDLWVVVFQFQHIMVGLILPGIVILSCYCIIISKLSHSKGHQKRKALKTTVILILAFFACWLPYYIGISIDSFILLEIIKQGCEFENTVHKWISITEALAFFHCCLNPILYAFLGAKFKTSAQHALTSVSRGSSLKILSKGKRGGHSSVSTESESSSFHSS
Description: CXCR4/SDF-1 interaction regulates migration (chemotaxis) of cells bearing CXCR4 on their surface. To determine the antagonist and cellular activities of a test compound, a chemotaxis assay using human histiocytic lymphoma U937 cells (ATCC CRL 1593) that express endogenous CXCR4 are employed. Briefly, U937 cells, grown in DMEM medium (Gibco, Grand Island, N.Y.) containing 10% FBS, 1% MEM sodium pyruvate (Gibco), 1% MEM nonessential amino acids (Gibco), and 1% GlutaMAX 1 (Gibco), are harvested and washed once with chemotaxis assay buffer prepared with 1×RPMI medium (Gibco) containing 10 mM HEPES, pH 7.5, and 0.3% BSA. After washing, cells are resuspended in assay buffer at a concentration of 5×10^6 cells/mL. The assay is performed in a 96-well ChemoTx plate (NeuroProbe) according to the manufacturer's directions. […] The plate is then incubated for 60 min at 37° C., and the migrated cells are detected by measuring the absorbance at 492 nm with a Tecan Spectrafluor Plus Microplate Reader (Salzburg, Austria). CXCR4 antagonists inhibit cell migration, reducing the absorbance reading. The inhibitory potency (IC50) of a test compound in this assay is calculated using GraphPad Prism software, based on the dose-dependent decrease of absorbance at 492 nm.

CXCR4 [2] = molecular target: T1, CXCR4; assay: Human CXCR4/125I-SDF-1α binding inhibition assay; parameters: human leukemia CCRF-CEM cells (ATCC CCL 119) expressing endogenous CXCR4 are employed; endogenous in cells; host or cells: CCRF-CEM (ATCC CCL 119), whole cells; settings: for Ki: CCRF-CEM cells expressing endogenous CXCR4, Ki calculated from IC50
Method: “Ki” values are calculated using IC50 values determined in the CXCR4/^125I-SDF-1α binding assay described below by employing equation 7.22 of Enzymes, A Practical Introduction to Structure, Mechanism, and Data Analysis, Robert A. Copeland, Wiley-VCH, New York, 1996, page 207.
Human CXCR4/^125I-SDF-1α Binding Inhibition Assay
SDF-1 binding to CXCR4 is the first step in activating the CXCR4 intracellular signalling pathway. To determine if a compound can block the interaction of SDF-1 and CXCR4, human leukemia CCRF-CEM cells (ATCC CCL 119) expressing endogenous CXCR4 are employed in an ^125I-labeled SDF-1α binding assay. The assay is performed in a 96-well U-bottom, non-treated polystyrene plate (Corning Incorporated, Costar, No. 3632). The binding assay buffer is prepared with RPMI 1640 medium (Gibco, Grand Island, N.Y.) containing 10 mM HEPES, pH 7.5, and 0.2% BSA. Briefly, 200 μL reaction mixtures containing 300 pM SDF ligand (60 pM ^125I-SDF-1α (Perkin Elmer) and 240 pM cold SDF-1α (R&D Systems), different concentrations of the test compound in assay buffer, 100,000 human CCRF-CEM cells, and 0.5 mg SPA beads (Wheatgerm agglutinin beads; Amersham) are incubated at room temperature for 2 hr. Plates are then counted in a 1450 Microbeta Liquid Scintillation and Luminescence Counter (Wallac) in SPA mode. CXCR4 antagonists decrease the bound radioactivity in this assay in a dose-dependent manner. The inhibitory potency (K1 or IC50) of a test compound is calculated using GraphPad Prism software, based on the dose-dependent decrease of bound radioactivity.

[3] = tested on: neutrophils and white blood cells in peripheral blood; assay: Compound-induced white blood cell and neutrophil mobilization in C57BL/6 mice; assay type: in vivo, mouse; settings: 5 mg/kg
Description: Compound-Induced White Blood Cell and Neutrophil Mobilization in C57BL/6 Mice
Stem cells within the bone marrow actively maintain continuous production of all mature blood cell lineages throughout life. Bone marrow is the primary site for white blood cell (WBC)/neutrophil production and release into the circulation. The CXCR4/SDF-1 axis appears to be critical for the retention and release of WBCs, neutrophils, and hematopoietic progenitor cells in the bone marrow, and interruption of CXCR4/SDF-1 interaction in bone marrow leads to an increase of these cells in peripheral blood. A short-term mouse WBC/neutrophil mobilization model can be used to determine the in vivo target-modulating activity of a test compound. Briefly, pathogen-free 5-6 week old female C57BL/6 mice (Taconic) are housed for at least one week prior to assay. Animals are allowed continuous access to sterilized rodent chow and acidified water. Groups of 5 mice are injected subcutaneously with test compounds in saline, or with saline control, and then sacrificed by CO2 asphyxiation and cervical dislocation at various time points post compound administration. Peripheral blood is collected by cardiac puncture using EDTA-coated syringes and tubes. […] Total WBCs, neutrophils, and lymphocytes in the peripheral blood are recorded. […]

[4] = tested on: human non-Hodgkin's lymphoma Namalwa cells; assay: Anti-tumor activity in a SCID/Namalwa xenograft model; assay type: in vivo, mouse; settings: 1 mg/kg BID, subcutaneous
Description: Anti-Tumor Activity in a SCID/Namalwa Xenograft Model
SDF-1/CXCR4 interaction appears to play an important role in multiple stages of tumorigenesis, including tumor growth, invasion, angiogenesis, and metastasis. To evaluate in vivo anti-tumor activity of a test compound, a tumor xenograft model using NOD/SCID mice (Jackson Laboratories) and human non-Hodgkin's lymphoma Namalwa cells (ATCC CRL 1432) are employed. Briefly, 200,000 Namalwa cells mixed with matrigel (1:1) are implanted subcutaneously into the rear flank of the animals. The implanted tumor cells grow as solid tumors, the dimensions of which can be continuously monitored and measured using a caliper. To determine the in vivo efficacy of a test compound in this model, one can treat animals (10/group) with different doses of test compounds dissolved in saline or PBS, beginning 48 hours post tumor cell implantation. Compounds are dosed subcutaneously, and tumor volume and body weight are determined every 2 or 3 days. Studies generally last 3-4 weeks, depending on tumor growth. The anti-tumor growth activity of a test compound is determined by the percent reduction in tumor volume in treatment groups compared to tumor volume in control groups treated with vehicle alone.

[5] = molecular target: T2, human chemokine receptor CXCR2 (Homo sapiens, UniProt P25025); assay: Chemokine receptor binding selectivity assay, ligand binding
T2 sequence (P25025 1-360): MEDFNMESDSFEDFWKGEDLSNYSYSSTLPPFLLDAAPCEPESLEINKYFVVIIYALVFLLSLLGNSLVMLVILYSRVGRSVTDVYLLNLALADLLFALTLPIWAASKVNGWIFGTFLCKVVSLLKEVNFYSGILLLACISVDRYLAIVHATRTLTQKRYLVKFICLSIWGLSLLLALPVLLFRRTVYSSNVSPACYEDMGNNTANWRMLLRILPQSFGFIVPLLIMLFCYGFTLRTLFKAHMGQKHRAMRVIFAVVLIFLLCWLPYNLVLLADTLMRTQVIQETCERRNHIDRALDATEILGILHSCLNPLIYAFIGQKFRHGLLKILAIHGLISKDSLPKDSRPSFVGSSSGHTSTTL
Description: Chemokine Receptor Binding Selectivity Assays
The binding selectivity of the present compounds for the CXCR4 receptor compared to that for other chemokine receptors, such as human CCR1, CCR2, CXCR2, or CXCR3, and other G-protein-coupled receptors, can be assessed in cells transfected with nucleic acid encoding and expressing such receptors, or in cells in which such receptors are endogenously expressed. Whole cells or membrane fragments can be used to assess competition of test compounds with the respective ligands for these receptors in a manner similar to that described above for the CXCR4/^125I-SDF-1α binding inhibition assay.

[6] = In vivo metabolic stability in dog; settings: up to 24 hours after administration
Method: (§1) Pharmacologic properties such as compound bioavailability, in vivo metabolic stability, and pharmacokinetic/pharmacodynamic properties can be determined by methods well known in the art of drug development. […] For example, in mice, the half-life (T½) of the compound of Example 58 is about 3 hours. With respect to pharmacodynamic properties, preferred compounds induce prolonged neutrophil and white blood cell mobilization in mice. For example, the compound of Example 25 induces a significant increase of neutrophils and white blood cells in peripheral blood for at least 6 hours after single dose subcutaneous administration at 5 mg/kg in mice.

[7] = In vivo metabolic stability in monkey; settings: up to 24 hours after administration
Method: as §1

Bioavailability in rats = settings: rat, in vivo, sc, subcutaneous
Method: as §1

In the case of CC(C)NCCCC[C@@H]1NC(=O)[C@H](Cc2ccc(O)cc2)NC(=O)[C@@H](C)NC(=O)CC[C@H](C(N)=O)NC(=O)CNC(=O)[C@H](Cc2ccc3ccccc3c2)NC(=O)[C@@H](CCCNC(=N)N)NC1=O [Example 50, cyclo[DAla-Tyr-Lys(iPr)-DArg-2Nal-Gly-DGlu]-NH2] ([dA]Y[Lys(iPr)][dR][2Nal]G[dE]-NH2; lactam N-7), the IC50 (CXCR4 [1]) is reported as 0.171 nM and the Ki (CXCR4 [2]) is reported as 0.285 nM.
CC(C)NCCCC[C@@H]1NC(=O)[C@H](Cc2ccc(O)cc2)NC(=O)CNC(=O)CC[C@H](C(=O)N[C@@H](CCCCNC(C)C)C(=O)NCC(=O)N[C@@H](Cc2ccc3ccccc3c2)C(N)=O)NC(=O)CNC(=O)[C@H](Cc2ccc3ccccc3c2)NC(=O)[C@@H](CCCNC(=N)N)NC1=O [Example 75, cyclo[Gly-Tyr-Lys(iPr)-DArg-2Nal-Gly-DGlu]-Lys (iPr)-Gly-2Nal-NH2] (GY[Lys(iPr)][dR][2Nal]G[dE][Lys(iPr)]G[2Nal]-NH2; lactam N-7) showed a Ki (CXCR4 [2]) of 0.096 nM.
With “cyclo[Gly-Tyr-Lys(iPr)-DArg-2Nal-Gly-Glu]-Arg-NH2 (GY[Lys(iPr)][dR][2Nal]GER-NH2; lactam N-7) [Example 39]” the “average neutrophil ratio (neutrophil increase in treatment group vs. saline control group)” value ([3]; 3 hours after compound administration, subcutaneous) was 4.6.
In the case of “cyclo[Gly-Tyr-Lys(iPr)-DArg-2Nal-Gly-DGlu]-NH2 (GY[Lys(iPr)][dR][2Nal]G[dE]-NH2; lactam N-7; SMILES CC(C)NCCCC[C@@H]1NC(=O)[C@H](Cc2ccc(O)cc2)NC(=O)CNC(=O)CC[C@H](C(N)=O)NC(=O)CNC(=O)[C@H](Cc2ccc3ccccc3c2)NC(=O)[C@@H](CCCNC(=N)N)NC1=O) [Example 26]”, the tumor growth inhibition [4] is reported as “significantly inhibit tumor growth”.
For CC(C)NCCCC[C@H](NC(=O)[C@H]1CCC(=O)N[C@@H](Cc2ccccc2)C(=O)N[C@@H](Cc2ccc(O)cc2)C(=O)N[C@@H](CCCCNC(C)C)C(=O)N[C@H](CCCNC(=N)N)C(=O)N[C@@H](Cc2ccc3ccccc3c2)C(=O)NCC(=O)N1)C(N)=O [Example 57a, cyclo[Phe-Tyr-Lys(iPr)-DArg-2Nal-Gly-DGlu]-Lys (iPr)-NH2.acetic acid salt] (FY[Lys(iPr)][dR][2Nal]G[dE][Lys(iPr)]-NH2; lactam N-7), the Ki [5] was greater than 73000 nM, the “metabolites in plasma and urine” value [6] was “no detectable metabolites” and the “metabolites in plasma and urine” value [7] was “no detectable metabolites”.
CC(=O)N[C@H]1CNC(=O)CC[C@@H](C(=O)N[C@@H](CCCNC(=N)N)C(N)=O)NC(=O)CNC(=O)[C@H](Cc2ccc3ccccc3c2)NC(=O)[C@@H](CCCNC(=N)N)NC(=O)[C@H](CCCNC(=N)N)NC(=O)[C@H](Cc2ccc(O)cc2)NC1=O [Example 1, Ac-cyclo[Dap-Tyr-Arg-DArg-2Nal-Gly-Glu]-Arg-NH2] (Ac-[Dap]YR[dR][2Nal]GER-NH2; lactam 1-7) gave a Ki (CXCR4 [2]) of 3.45 nM.
In the case of “cyclo[Gly-Tyr-Lys(iPr)-DArg-2Nal-Gly-DGlu]-Arg-NH2 (GY[Lys(iPr)][dR][2Nal]G[dE]R-NH2; lactam N-7) [Example 25]”, the “duration of significant increase of neutrophils and white blood cells in peripheral blood” value ([3]; single dose subcutaneous, mice) is reported as “at least 6 hours”.
CN(C)CCCC[C@@H]1NC(=O)[C@H](Cc2ccc(O)cc2)NC(=O)[C@@H](NC(=O)c2ccccc2)CC(=O)NC[C@@H](C(=O)N[C@@H](CCCNC(=N)N)C(N)=O)NC(=O)CNC(=O)[C@H](Cc2ccc3ccccc3c2)NC(=O)[C@@H](CCCNC(=N)N)NC1=O [Example 19, Bz-cyclo[Asp-Tyr-Lys(Me2)-DArg-2Nal-Gly-Dap]-Arg-NH2] (Bz-DY[Lys(Me2)][dR][2Nal]G[Dap]R-NH2; lactam 1-7) gave an IC50 (CXCR4 [1]) of 2.05 nM.
CCNC(=O)[C@H](CCCNC(=N)N)NC(=O)[C@H]1CCC(=O)NCC(=O)N[C@@H](Cc2ccc(O)cc2)C(=O)N[C@@H](CCCCNC(C)C)C(=O)N[C@H](CCCNC(=N)N)C(=O)N[C@@H](Cc2ccc3ccccc3c2)C(=O)NCC(=O)N1 [Example 44, cyclo[Gly-Tyr-Lys(iPr)-DArg-2Nal-Gly-DGlu]-Arg-NHEt] (GY[Lys(iPr)][dR][2Nal]G[dE]R-NHEt; lactam N-7) gave a bioavailability (Bioavailability in rats) of roughly 100%.
In the case of “cyclo[Phe-Tyr-Lys(iPr-d6)-DArg-2Nal-Gly-DGlu]-Lys(iPr-d6)-NH2 (FY[Lys(iPr-d6)][dR][2Nal]G[dE][Lys(iPr-d6)]-NH2; lactam N-7) [Example 89]”, the “target receptor affinity compared to the non-labeled counterpart” value (CXCR4 [2]; deuterium-labeled peptide vs non-labeled counterpart) is reported as “identical target receptor affinity”.
